This note sets out measurements from PMC4649711, “In1-ghrelin splicing variant is overexpressed in pituitary adenomas and increases their aggressive features” (Scientific Reports, 2015).

Broadly, the EC50 is the concentration that produces a half-maximal response.

Entries after “also recorded” stand apart in the source; their conditions may differ. Residues, ends and D or L forms follow the SMILES beside them. *: point of attachment. Octanoyl = CCCCCCCC(=O)*

One data set relates to NFPAs. Briefly: cell viability of NFPAs after In1-ghrelin silencing. In kind it is cell-based, human. Particulars: siRNA 100 nM vs scramble, 24 and 48 h, alamar-blue, n = 2. From the text:
(§1) To perform overexpression experiments, ghrelin sequence was purchased, cloned in pCMV-Sport6-vector (Harvard Cancer Center, Boston, MA, USA) and was subcloned into the expression vector pCDNA3.1+ (Life Technologies, Grand Island, NY, USA). In1-ghrelin sequence was PCR-amplified (In1-Hind-Up: 5′-[…]-3′ and In1-Bam-Low: 5′-[…]-3′) and cloned into pCDNA3.1+. Empty pCDNA3.1+ (mock) was used in all the experiments as negative control. For silencing experiments, a battery of custom-designed siRNAs specifically targeted against the unique In1-ghrelin mRNA sequence was chemically synthesized by Life Technologies and their efficiency, specificity and appropriate concentration tested in human cell lines expressing In1-ghrelin (MDA-MB-231 breast cancer cell line and LnCAP prostate cancer cell line) (data not shown). […]
(§2) As previously reported, cell viability was estimated using alamar-blue reagent (10,000 cells/well-plate; Biosource International, Camarillo, CA, USA)[30][50][52]. […] Reduction of alamar-blue reagent was quantified exciting at 560 nm and reading at 590 nm using the FlexStation III system (Molecular Devices, Sunnyvale, CA, USA). […]
(In general: The colour change of resazurin is a common sign of viable cells or microbes.)

In the next data set the test system is In1-ghrelin mRNA. Briefly: silencing of In1-ghrelin mRNA expression. It is filed as cell-based, human. The note with it: qPCR; for silencing of In1-ghrelin expression: human cell lines MDA-MB-231 and LnCAP (data not shown) or representative pituitary tumor validation (Figure 6G). The source says: To perform overexpression experiments, ghrelin sequence was purchased, cloned in pCMV-Sport6-vector (Harvard Cancer Center, Boston, MA, USA) and was subcloned into the expression vector pCDNA3.1+ (Life Technologies, Grand Island, NY, USA). In1-ghrelin sequence was PCR-amplified (In1-Hind-Up: 5′-[…]-3′ and In1-Bam-Low: 5′-[…]-3′) and cloned into pCDNA3.1+. Empty pCDNA3.1+ (mock) was used in all the experiments as negative control. For silencing experiments, a battery of custom-designed siRNAs specifically targeted against the unique In1-ghrelin mRNA sequence was chemically synthesized by Life Technologies and their efficiency, specificity and appropriate concentration tested in human cell lines expressing In1-ghrelin (MDA-MB-231 breast cancer cell line and LnCAP prostate cancer cell line) (data not shown). […] As a negative control, a commercial, validated negative control (scramble) was used in all the experiments, which according to the manufacturer's instructions, has no significant sequence similarity to murine or human gene sequences (Silencer Select Negative Control No. 1 siRNA, Life Technologies, […], NY, USA).
For transfection assays (overexpression or silencing), 200,000–500,000 cells were seeded on 6-well plates in serum containing medium during 24–36 h. Then, medium was replaced with antibiotic-antimycotic free medium. For overexpression experiments, 100 ng/50,000 cell of ghrelin or In1-ghrelin plasmid was diluted in 50 μL of Opti-MEM and, 0.5 μL of Lipofectamine 2000 (Life Technologies) were separately diluted in another 50 μL of Opti-MEM. Both solutions were incubated for 5 minutes at room temperature and then, were mixed and incubated for 30 minutes at room temperature. After this incubation period, the solution (total of 100 μL) was added to the cells/per well. For silencing experiments, 7.5 μL of Lipofectamine RNAiMAX (Life Technologies) was diluted in 100 μL of Opti-MEM and, 100 nM of In1-ghrelin siRNA was separately diluted in another 100 μL of Opti-MEM. […]

The subject of a further data set is GH-omas. In words: cell viability of GH-omas after In1-ghrelin silencing. In kind it is cell-based, human. Particulars: siRNA 100 nM vs scramble, 24 and 48 h, alamar-blue, n = 2.
Source text: as §1, §2

A further data set has as its target T1, recombinant human GHSR1b (Homo sapiens, UniProt Q92847).
T1 construct: expressed in transfected cells; host or cells: CHO-K1 (ATCC CCL-61), stably transfected
Briefly: calcium signaling activation in GHSR1b-transfected CHO-K1 cells. In kind it is cell-based. Particulars: Calcium 4 kit, FLIPR Tetra, 37°C dye loading 1 h, dose-response, GraphPad Prism, read-out: Half-maximal Calcium signaling activation (EC50).

Data set [1] has as its system AtT-20 cell line. In words: cell viability of AtT-20 cell line. In kind it is cell-based, mouse. Particulars: alamar-blue, 3–5 independent experiments, IGF-1 and Paclitaxel as controls. Here is the method:
(§3) The mouse corticotroph pituitary derived cell line AtT-20/D16v-F2 (ATCC® CRL-1795) was cultured and maintained in Dulbecco's Modified Eagle's Medium (DMEM) complemented with 10% FBS, 100 U/ml penicillin/streptomycin, 0.024 M of 2-(4(2-hydroxyethyl)-1-piperazine)-ethane sulfonic acid (HEPES), and maintained at 37°C and 5% CO2, under sterile conditions. CHO-K1 cell line(ATCC® CCL-61) expressing recombinant human GHSR1a (GenBank accession number U60179) or GHSR1b (GenBank accession number U60181) were cultured and maintained in Ham's F12 media (Corning #10-080-CV) supplemented with 10% FBS, 2 mM L-Glutamine and 0.4 mg/mL Geneticin.
As previously reported, cell viability was estimated using alamar-blue reagent (10,000 cells/well-plate; Biosource International, Camarillo, CA, USA)[30][50][52]. Briefly, cells were serum-starved for 12–16 h before the measurements and treated with serum-free medium containing 10% alamar-blue for 3 h. Reduction of alamar-blue reagent was quantified exciting at 560 nm and reading at 590 nm using the FlexStation III system (Molecular Devices, Sunnyvale, CA, USA). Subsequently, media was replaced by serum-containing alamar-blue free medium and incubated for additional 24–72 h, measuring the alamar-blue reduction every 24 h. […]

Data set [2] has as its system AtT-20 cell line. Briefly: ACTH secretion from AtT-20 cell line. In kind it is cell-based, mouse. The note with it: 4 h, 3–5 independent experiments. The procedure: as §3
To examine the effects of ghrelin system components (4- and/or 24 h-incubation) on pituitary hormone release from primary pituitary adenoma and/or AtT-20 cell line, 100,000–200,000 cell/well were used. As previously reported, hormone concentrations were measured in the culture media derived from human samples according to the pituitary adenoma type using commercial ELISAs [growth hormone, GH; adrenocorticotropin, ACTH; and prolactin, PRL (reference numbers: EIA-3552, EIA-3647 and EIA-1291, respectively; DRG, Mountainside, NJ, USA)] following the manufacturer's instructions. All the information regarding specificity, detectability, and reproducibility for each of the assays can be accessed at the web site of the company.

T1 sequence (Q92847 1-289 isoform Q92847-2): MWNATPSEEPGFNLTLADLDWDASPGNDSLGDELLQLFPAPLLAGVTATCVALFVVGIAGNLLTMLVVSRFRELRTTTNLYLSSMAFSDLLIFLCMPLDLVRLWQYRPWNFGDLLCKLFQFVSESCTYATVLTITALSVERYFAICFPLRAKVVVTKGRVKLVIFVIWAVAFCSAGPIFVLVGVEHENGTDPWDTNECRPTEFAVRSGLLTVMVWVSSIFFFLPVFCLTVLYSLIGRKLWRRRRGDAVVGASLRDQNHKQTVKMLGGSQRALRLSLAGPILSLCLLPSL
Protocol for recombinant human GHSR1b: Changes in [Ca^2+]i in CHO-K1 cell line expressing recombinant GHSR1a or GHSR1b receptor were measured using Calcium 4 Explorer Kit (Molecular Devices, Sunnyvale, CA, USA). Briefly, cells were incubated at 37°C, 5% CO2 overnight in growth media. After 24 hours, growth media was replaced with Calcium 4 indicating dye in HBSS buffer containing 20 mM HEPES and 0.1% BSA and incubated for 1 hour at 37°C. Fluorescent signals were then monitored using the FLIPR Tetra (Molecular Devices, Sunnyvale, CA, USA) during which cells were stimulated with compounds. Dose-response curves were analyzed using GraphPad Prism v5.04 (La Jolla, CA, USA).

On to “5′-GAGTCCTAAACAGACTGTT-3′ (siRNA; other strand not given here) [In1-ghrelin siRNA]”, for which the “cell viability after In1-ghrelin silencing” value in the data set with NFPAs and in the data set on GH-omas was “reduced cell viability” throughout. Besides, the “silencing of In1-ghrelin expression” value in the data set on In1-ghrelin mRNA is “more robust silencing efficiency of In1-ghrelin, but not native ghrelin”; with In1-ghrelin mRNA (listed as specific siRNAs) it was “decrease of In1-ghrelin mRNA expression”. Further, the “ghrelin mRNA expression after In1-ghrelin silencing” value in the data set on In1-ghrelin mRNA (selectivity vs native ghrelin) is on record as “no significant decrease of ghrelin mRNA expression”.

On to `CCCCCCCC(=O)OC[C@H](NC(=O)[C@H](CO)NC(=O)CN)C(=O)N[C@@H](Cc1ccccc1)C(=O)N[C@@H](CC(C)C)C(=O)N[C@@H](CO)C(=O)N1CCC[C@H]1C(=O)N[C@@H](CCC(=O)O)C(=O)N[C@@H](Cc1c[nH]cn1)C(=O)N[C@@H](CCC(N)=O)C(=O)N[C@@H](CCCNC(=N)N)C(=O)N[C@H](C(=O)N[C@@H](CCC(N)=O)C(=O)N[C@H](C(=O)N[C@@H](CCCNC(=N)N)C(=O)N1CCC[C@H]1C(=O)N1CCC[C@H]1C(=O)N[C@@H](Cc1c[nH]cn1)C(=O)N[C@@H](CCCCN)C(=O)O)C(C)C)C(C)C` [In1-19] (H-GSS(Octanoyl)FLSPEHQRVQVRPPHK-OH), for which the EC50 on recombinant human GHSR1b is > 3 µM.

In the case of `CCCCCCCC(=O)OC[C@H](NC(=O)[C@H](CO)NC(=O)CN)C(=O)N[C@@H](Cc1ccccc1)C(=O)N[C@@H](CC(C)C)C(=O)N[C@@H](CO)C(=O)N1CCC[C@H]1C(=O)N[C@@H](CCC(=O)O)C(=O)N[C@@H](Cc1c[nH]cn1)C(=O)N[C@@H](CCC(N)=O)C(=O)N[C@@H](CCCNC(=N)N)C(=O)N[C@H](C(=O)N[C@@H](CCC(N)=O)C(=O)N[C@H](C(=O)N[C@@H](CCCNC(=N)N)C(=O)N1CCC[C@H]1C(=O)N1CCC[C@H]1C(=O)N[C@@H](Cc1c[nH]cn1)C(=O)N[C@@H](CCCCN)C(=O)N[C@@H](C)C(=O)N1CCC[C@H]1C(=O)N[C@@H](Cc1c[nH]cn1)C(=O)N[C@H](C(=O)N[C@H](C(=O)N1CCC[C@H]1C(=O)N[C@@H](C)C(=O)N[C@@H](CC(C)C)C(=O)N1CCC[C@H]1C(=O)N[C@@H](CC(C)C)C(=O)N[C@@H](CO)C(=O)N[C@@H](CC(N)=O)C(=O)N[C@@H](CCC(N)=O)C(=O)N[C@@H](CC(C)C)C(=O)N[C@@H](CS)C(=O)N[C@@H](CC(=O)O)C(=O)N[C@@H](CC(C)C)C(=O)N[C@@H](CCC(=O)O)C(=O)N[C@@H](CCC(N)=O)C(=O)N[C@@H](CCC(N)=O)C(=O)N[C@@H](CCCNC(=N)N)C(=O)O)C(C)C)C(C)C)C(C)C)C(C)C` [In1-40] (H-GSS(Octanoyl)FLSPEHQRVQVRPPHKAPHVVPALPLSNQLCDLEQQR-OH), the EC50 on recombinant human GHSR1b was > 3 µM.

“GSSFLSPEHQKAQVSQSVSLSPHIYPDLCVCV [In2-ghrelin, 32-aa mouse In2-ghrelin derived peptide, murine counterpart of In1-ghrelin]”: the cell viability result in the data set on AtT-20 cell line [1] is “stimulated cell viability; also recorded: increased cell viability”. Besides, in the data set on AtT-20 cell line [2], the “basal ACTH release” value is “significantly increased basal ACTH release”.
